A short description of series [1]: Hepatic microsomal stability, human. It counts as in vitro ADME. The procedure:
(§1) Hepatic microsomal assays were performed with 4981, 4985, 4991 and 4999 in human and rat (Sprague-Dawley). Protein concentrations of 0.4 (human) and 0.2 mg/mL (rat) with an NADPH regenerating cofactor system (2.6 mM NADP+, 6.6 mM glucose-6-phosphate, 0.8 U/mL glucose-6-phosphate dehydrogenase, and 6.6 mM magnesium chloride) were used. A 100 μM 20% DMSO/80% acetonitrile working stock of each of the compounds was diluted 100 fold resulting in 1 μM compound/1% final organic reaction concentrations. Time points were removed at 0 and 60 minutes. At each time point, 100 μL of the incubation suspension was added to 200 μL of acetonitrile containing internal standard (tolbutamide), followed by centrifugation at 3,220 rcf for 10 minutes. Two hundred (200)μL of the resulting supernatants were removed, dried under nitrogen and reconstituted in 100 μL of 2 mM ammonium acetate, 0.1% formic acid in 50% methanol prior to analysis by LC/MS/MS. Testosterone and dexamethasone were used as reference compounds.

The conditions of series [2]: PAMPA, 5 h, 10 μM, pH 7.4. On the technique in general: PAMPA measures passive passage across an artificial lipid membrane.
Protocol: The target concentration in the assay was 10 μM, prepared by diluting (1000-fold) the 10 mM stock solutions in DMSO into PBS, pH 7.4. The final DMSO concentration was 0.1%. The 10 μM solutions were added, 300 μL, to wells in the donor plate. The receiver plate, which contained 200 μL of PBS, pH 7.4 per well, was placed in the donor plate and the assembly was incubated for 5 hours at ambient temperature. At the end of the incubation period the plates were separated and the compound concentrations in each solution were determined by LC/MS/MS. The assay was performed in triplicate.
Where: • C0 is the initial concentration in the donor well (μM) • CD(t) is the concentration in the donor well after incubation (μM) • CA(t) is the concentration in the acceptor well after incubation (μM) • VD is the volume in the donor well (0.3 mL) • VA is the volume in the acceptor well (0.2 mL) • CE is (CD(t)VD+CA(t)VA)/(VD+VA) • A is the filter area (0.3 cm2) • t is the incubation time (18,000 s).
Series [3] is described as follows: Hepatic microsomal stability, rat. It is filed as in vitro ADME, rat (Sprague-Dawley). The procedure: as §1
Series [4] concerns the target T1, Enzyme (kinases of Table 30) (Homo sapiens, UniProt P78368).
T1 construct: IC50 of Compound, CK1γ2(h); other: CK1γ2(h), ATP present at Km of enzyme
The series is described as follows: IC50 of Compound (nM) (ATP present at Km of enzyme), Table 30. It is filed as biochemical. The note with it: CK1γ2(h), ATP present at Km of enzyme.

The subject of series [5] is Jurkat cells. In words: Cell proliferation study, inhibition of Jurkat cells (MTS). It counts as cell-based. The note with it: Homo sapiens, 72 hours, read-out: Inhibition Rate %. On the procedure:
Inhibition of Jurkat Cells
(§2) • Cells: Jurkat cells, ATCC Passage unknown, Mycoplasma free. • Medium: RPMI-1640 Medium (GIBCO Cat#22400121) supplemented with 10% fetal bovine serum(Hyclone Cat#SH30396.03). • Seeding: 5,000 cells/well (100 μL) into 96-well plates, incubated overnight at 37° C. in a humidified 5% CO2 atmosphere. • Treatment: Test compounds were first diluted 333-fold in the medium. Fifty microliters (50 μL) of diluted compounds were added into each well (i.e., another 3-fold dilution). The final concentration of test compounds was 10 μM. The cells were incubated for 72 hours after addition of the test compounds. • MTS: Added 20 μL of MTS solution (Promega Cat #G5430) into each well and incubated for 4 hours. • Calculation: % of inhibition+(AVE zero ctrl−AVE compound)/AVE zero ctrl*100.

Series [6] relates to HCT116 cells. In words: Cell proliferation study, inhibition of HCT116 cells (MTS). It counts as cell-based. The note with it: Homo sapiens, 72 hours, read-out: Inhibition Rate %. The procedure:
Inhibition of HCT116 Cells
• Cells: HCT116 cells, ATCC Passage unknown, Mycoplasma free. • Medium: DMEM Medium (GIBCO Cat#11995073) supplemented with 10% fetal bovine serum (Hyclone Cat#SH30396.03). • Seeding: 750 cells/well (100 μL) into 96-well plates, incubated overnight at 37° C. in a humidified 5% CO2 atmosphere. • Treatment: Test compounds were first diluted 333-fold in the medium. Fifty microliters (50 μL) of diluted compounds were added into each well (i.e., another 3-fold dilution). The final concentration of test compounds was 10 μM. The cells were incubated for 72 hours after addition of the test compounds. • MTS: Added 20 μL of MTS solution (Promega Cat #G5430) into each well and incubated for 4 hours. • Measurement: Absorbance at 490 nm using MD Spectramax Plus 384 spectrophotometer. • Calculation: % of inhibition+(AVE zero ctrl−AVE compound)/AVE zero ctrl*100.

The test system of series [7] is LNCaP cells. In words: Cell proliferation study, inhibition of LNCaP cells (MTS). It counts as cell-based. The note with it: Homo sapiens, 72 hours, read-out: Inhibition Rate %. The procedure:
Inhibition of LNCaP Cells
as §2, with “LNCaP,” for “Jurkat cells,”, “serum (Hyclone” for “serum(Hyclone”, “3,000” for “5,000”

In series [8] the test system is MDA-MB-468 cells. In words: Cell proliferation study, inhibition of MDA-MB-468 cells (MTS). To be noted: Homo sapiens, 72 hours, read-out: Inhibition Rate %. It is filed as cell-based. The procedure: Inhibition of MDA-MB-468 Cells
as §2, with “MDA-MB-468” for “Jurkat”, “serum (Hyclone” for “serum(Hyclone”, “2,000” for “5,000”

In series [9] the test system is OVCAR-3 cells. In words: Cell proliferation study, inhibition of OVCAR-3 cells (MTS). It counts as cell-based. The note with it: Homo sapiens, 72 hours, read-out: Inhibition Rate %. On the procedure:
Inhibition of OVCAR-3 Cells
as §2, with “OVCAR-3” for “Jurkat”, “4,” for “unknown,”, “serum (Hyclone” for “serum(Hyclone”, “2,000” for “5,000”

Series [10] relates to PC-3 cells. The series is described as follows: Cell proliferation study, inhibition of PC-3 cells (MTS). It counts as cell-based. To be noted: Homo sapiens, 72 hours, read-out: Inhibition Rate %. On the procedure:
Inhibition of PC-3 Cells:
as §2, with “PC-3” for “Jurkat”, “DMEM” for “RPMI-1640”, “Cat#11995073)” for “Cat#22400121)”, “serum (Hyclone” for “serum(Hyclone”, “3,000” for “5,000”

The target of series [11] is T2, Enzyme (kinases of Table 30) (Homo sapiens, UniProt P68400).
T2 construct: IC50 of Compound, CK2(h); other: CK2(h), ATP present at Km of enzyme
In words: IC50 of Compound (nM) (ATP present at Km of enzyme), Table 30. It is filed as biochemical. The note with it: CK2(h), ATP present at Km of enzyme.

For series [12], the target named is Enzyme (kinases of Table 30) (Homo sapiens, UniProt Q86V86). The series is described as above. It counts as biochemical. The note with it: Pim-3(h), ATP present at Km of enzyme; read-out: IC50 of Compound, Pim-3(h).
Series [13] deals with Enzyme (kinases of Table 30) (Homo sapiens, UniProt Q9P1W9). The series is described as above. It is filed as biochemical. The note with it: Pim-2(h), ATP present at Km of enzyme; read-out: IC50 of Compound, Pim-2(h).
The target of series [14] is Enzyme (kinases of Table 30) (Homo sapiens, UniProt P11309). The description is as above. It counts as biochemical. The note with it: Pim-1(h), ATP present at Km of enzyme; read-out: IC50 of Compound, Pim-1(h).
Sequence of Enzyme (kinases of Table 30) (Homo sapiens, UniProt P11309) (P11309 whole entry): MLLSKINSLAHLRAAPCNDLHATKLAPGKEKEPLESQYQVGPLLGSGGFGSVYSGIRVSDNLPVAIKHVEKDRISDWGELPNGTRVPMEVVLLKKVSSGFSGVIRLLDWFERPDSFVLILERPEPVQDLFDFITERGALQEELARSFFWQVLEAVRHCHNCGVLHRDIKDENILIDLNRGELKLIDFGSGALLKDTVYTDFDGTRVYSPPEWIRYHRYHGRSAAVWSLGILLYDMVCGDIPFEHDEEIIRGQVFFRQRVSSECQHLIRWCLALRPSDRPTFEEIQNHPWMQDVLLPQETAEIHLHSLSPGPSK

T1 sequence (P78368 whole entry): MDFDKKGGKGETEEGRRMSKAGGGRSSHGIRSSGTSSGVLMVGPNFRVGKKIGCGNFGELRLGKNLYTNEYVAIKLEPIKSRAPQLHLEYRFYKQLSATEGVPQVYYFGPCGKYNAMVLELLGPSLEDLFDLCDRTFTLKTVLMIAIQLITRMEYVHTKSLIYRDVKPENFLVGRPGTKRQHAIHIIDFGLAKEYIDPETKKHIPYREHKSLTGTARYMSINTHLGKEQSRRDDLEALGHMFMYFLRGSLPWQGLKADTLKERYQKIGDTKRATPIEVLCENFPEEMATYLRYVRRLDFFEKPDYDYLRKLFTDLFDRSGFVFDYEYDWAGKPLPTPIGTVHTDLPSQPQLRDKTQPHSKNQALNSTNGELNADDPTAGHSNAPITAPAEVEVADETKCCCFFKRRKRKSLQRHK
T2 sequence (P68400 whole entry): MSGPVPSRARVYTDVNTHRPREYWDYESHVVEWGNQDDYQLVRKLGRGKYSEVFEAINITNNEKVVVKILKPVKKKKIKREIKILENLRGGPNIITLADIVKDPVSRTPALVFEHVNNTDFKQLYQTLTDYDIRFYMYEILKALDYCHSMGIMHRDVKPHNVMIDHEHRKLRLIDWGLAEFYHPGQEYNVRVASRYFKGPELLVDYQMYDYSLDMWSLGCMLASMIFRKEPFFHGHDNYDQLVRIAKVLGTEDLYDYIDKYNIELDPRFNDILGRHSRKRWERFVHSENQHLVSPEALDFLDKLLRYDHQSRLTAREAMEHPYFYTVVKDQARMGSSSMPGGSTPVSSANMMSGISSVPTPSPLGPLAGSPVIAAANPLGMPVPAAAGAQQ
Sequence of Enzyme (kinases of Table 30) (Homo sapiens, UniProt Q9P1W9) (Q9P1W9 whole entry): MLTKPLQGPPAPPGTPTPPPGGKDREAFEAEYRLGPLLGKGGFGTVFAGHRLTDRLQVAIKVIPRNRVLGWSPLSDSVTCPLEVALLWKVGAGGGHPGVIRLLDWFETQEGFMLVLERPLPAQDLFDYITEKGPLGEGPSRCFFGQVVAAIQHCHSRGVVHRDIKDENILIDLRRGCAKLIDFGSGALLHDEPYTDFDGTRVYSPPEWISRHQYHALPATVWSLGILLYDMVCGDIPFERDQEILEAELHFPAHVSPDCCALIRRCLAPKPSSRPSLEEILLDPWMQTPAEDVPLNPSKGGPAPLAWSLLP

Turning to `C[C@@H]1C[C@H]2[C@@H]3CCC4=CC(=O)C=C[C@]4(C)[C@@]3(F)[C@@H](O)C[C@]2(C)[C@@]1(O)C(=O)CO` [Dexamethasone], the “% remaining after incubation, Human Microsomes” value in [1] (human, microsomes, 1 h, 1 μM) was found to be 85%. Moreover, in series [2], the “Mass Retention R” value came out at 9%. In addition, the “% remaining after incubation, Rat Microsomes” value in [3] (Sprague-Dawley, rat, microsomes, 1 h, 1 μM) was found to be 91%.
`O=C1NC(=O)/C(=C/c2ccnc(N3CCC(c4c[nH]c5ccccc45)CC3)n2)S1` [compound 94] returned an IC50 in series [4] of 38 nM.
In turn, `O=C1NC(=O)/C(=C/c2ccnc(N3CCC(c4nc(-c5ccncc5)no4)CC3)n2)S1` [compound 86] displayed an IC50 in [4] of 86 nM.
As to `C[C@]12CC[C@H]3[C@@H](CCC4=CC(=O)CC[C@@]43C)[C@@H]1CC[C@@H]2O` [Testosterone], the “% remaining after incubation, Human Microsomes” value in series [1] (1 μM compound, 0.4 mg/mL protein, NADPH regenerating system, 60 minutes) is 42%. Further, the “% remaining after incubation, Rat Microsomes” value in [3] (1 μM compound, 0.2 mg/mL protein, NADPH regenerating system, 60 minutes) was 0.6%.
As to `Nc1ccn([C@@H]2O[C@H](CO)[C@@H](O)C2(F)F)c(=O)n1` [Gemcitabine, gemcitabine], the inhibition at 1.2 µM in [5] (positive control 1.2 μM) was 17.4%; in series [6] (HCT-116, positive control 1.2 μM) it was 50.1%; in series [7] (positive control 1.2 μM) it was 14.5%; in series [8] (positive control 1.2 μM) it was 16.4%; in [9] (positive control 1.2 μM), 18.2%; in [10] (positive control 1.2 μM) it was 6.5%. Moreover, the inhibition at 3.7 µM in series [5] (positive control 3.7 μM) turned out to be 63.9%; in [6] (HCT-116, positive control 3.7 μM) it was 79.3%; in series [7] (positive control 3.7 μM) it was 60.9%; in [8] (positive control 3.7 μM) it was 31.2%; in [9] (positive control 3.7 μM) it was 25%; in series [10] (positive control 3.7 μM), 6.7%. Moreover, the inhibition at 11.1 µM in series [5] (positive control 11.1 μM) amounted to 84.7%; in [6] (HCT-116, positive control 11.1 μM), 85.6%; in series [7] (positive control 11.1 μM) it was 90.2%; in [8] (positive control 11.1 μM), 80.7%; in series [9] (positive control 11.1 μM), 31.5%; in series [10] (positive control 11.1 μM), 20.9%. Further, the inhibition at 33.3 µM was 105% in [5] (positive control 33.3 μM); 85.6% in [6] (HCT-116, positive control 33.3 μM); 92.9% in series [7] (positive control 33.3 μM); 91.7% in series [8] (positive control 33.3 μM); 40.8% in series [9] (positive control 33.3 μM); 47.4% in series [10] (positive control 33.3 μM). In addition, the inhibition at 100 µM in [5] (positive control 100 μM) was 106%; in series [6] (HCT-116, positive control 100 μM), 85.4%; in series [7] (positive control 100 μM), 90.7%; in [8] (positive control 100 μM), 88.8%; in [9] (positive control 100 μM), 85.1%; in series [10] (positive control 100 μM), 55.7%. The inhibition at 300 µM in series [5] (positive control 300 μM) came out at 104%; in [6] (HCT-116, positive control 300 μM), 87.6%; in series [7] (positive control 300 μM) it was 90.1%; in series [8] (positive control 300 μM), 94.9%; in series [9] (positive control 300 μM), 87%; in series [10] (positive control 300 μM), 79.5%.
Consider `COc1cccc2ccc(CNCC3CCN(c4nccc(/C=C5\SC(=O)NC5=O)n4)CC3)nc12` [compound 189], for which the IC50 in [11] was found to be 364 nM; in series [12], 4 nM; in [4] it was 164 nM; in [13], 9 nM; in [14] it was 4 nM.
For `Nc1cccc2c1CCN(c1nccc(/C=C3\SC(=O)NC3=O)n1)C2` [compound 120], the 50% inhibitory concentration (IC50) came out at 214 nM in series [11]; 271 nM in series [12]; 676 nM in series [4]; 225 nM in series [13]; 170 nM in series [14].

As usually defined, the IC50 is the concentration that gives 50% inhibition. The term inhibition denotes the change of the read-out against control, counted positive when it falls.

The values above are taken from patent publication US9157077B2, “Aminopyrimidine kinase inhibitors” (Jasco Pharmaceuticals, LLC, priority 2009, dated 2015).
